Earlier results on 2 molecules are cited in patent publication US20060073539A1 (priority 2001, published 2006).

This data set relates to human hepatocyte and neuroblastoma cells. To be noted: cited from earlier work.

Regarding `CCOP(=O)(OCC)Oc1ccc([N+](=O)[O-])cc1` [paraoxon], the “effect on cell metabolism” value is on record as “opposite effects”.

Consider `CCOP(=S)(OCC)Oc1ccc([N+](=O)[O-])cc1` [parathion], for which the “effect on cell metabolism” value is given as “opposite effects”.
